Laboratory results as given in US9914730B2, “Azaquinazoline inhibitors of Atypical protein Kinase C” (Ignyta, Inc., priority 2012, dated 2018).

target: T1, full-length human PKCι (Homo sapiens, UniProt P41743); assay: PKCι IC50 IMAP assay, full-length PKCι at 150 μM ATP; type: biochemical; conditions: read-out: IC50 in IMAP assay against full length PKCi at 150 μM ATP
T1 construct: Recombinant, full-length human PKCι expressed in Sf21 insect cells is also commercially available; purchased; host or cells: Sf21 insect cells
T1 sequence (P41743 1-596): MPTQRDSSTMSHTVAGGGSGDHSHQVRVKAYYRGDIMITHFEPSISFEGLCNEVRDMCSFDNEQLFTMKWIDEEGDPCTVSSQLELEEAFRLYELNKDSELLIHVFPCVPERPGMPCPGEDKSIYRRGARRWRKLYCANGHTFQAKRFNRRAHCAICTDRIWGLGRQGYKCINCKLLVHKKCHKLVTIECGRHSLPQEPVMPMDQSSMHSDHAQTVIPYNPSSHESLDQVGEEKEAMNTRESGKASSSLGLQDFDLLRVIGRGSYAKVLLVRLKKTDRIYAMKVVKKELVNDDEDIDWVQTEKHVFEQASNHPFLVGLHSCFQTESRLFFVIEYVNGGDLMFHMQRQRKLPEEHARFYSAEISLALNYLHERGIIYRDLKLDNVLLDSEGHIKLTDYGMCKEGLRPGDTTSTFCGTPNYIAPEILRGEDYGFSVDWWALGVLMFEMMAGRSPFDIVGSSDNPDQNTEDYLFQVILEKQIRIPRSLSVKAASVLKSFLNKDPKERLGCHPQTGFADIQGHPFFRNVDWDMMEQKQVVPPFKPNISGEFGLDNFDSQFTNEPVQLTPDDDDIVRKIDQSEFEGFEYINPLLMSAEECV
How it was run: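 Compounds in 4% final DMSO are mixed with Sf21-derived full-length human PKCι (typically 15 pM) and 100 nM FAM-labelled pseudosubstrate peptide, then started with 150 μM ATP. Reaction runs 60 min at room temperature, is quenched with IMAP development reagent for 2 h, and fluorescence polarisation is measured to derive IC50.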

IC50 [nM] | Compound
< 100 | C[C@H]1CN(c2nc(-c3ccnc4[nH]c(C(C)(C)C)cc34)nc3cncc(C4CC4)c23)CCN1 [Example 2001, 2-(2-tert-Butyl-1H-pyrrolo[2,3-b]pyridin-4-yl)-5-cyclopropyl-4-((S)-3-methyl-piperazin-1-yl)-pyrido[3,4-d]pyrimidine]
< 100 | CC1(C)CN(c2nc(-c3ccnc4[nH]c(C(C)(C)C)cc34)nc3cncc(C4CC4)c23)CCN1 [Example 2002, 2-(2-tert-Butyl-1H-pyrrolo[2,3-b]pyridin-4-yl)-5-cyclopropyl-4-(3,3-dimethyl-piperazin-1-yl)-pyrido[3,4-d]pyrimidine]
< 100 | C[C@H]1CN(c2nc(-c3ccnc(Nc4nc(F)cc(F)c4F)c3)nc3cncc(C4CC4)c23)CCN1 [Example 2004, {4-[5-Cyclopropyl-4-((S)-3-methyl-piperazin-1-yl)-pyrido[3,4-d]pyrimidin-2-yl]-pyridin-2-yl}-(3,4,6-trifluoro-pyridin-2-yl)-amine]
< 100 | C[C@@H](Nc1cc(-c2nc(N3CCNC(C)(C)C3)c3c(C4CC4)cncc3n2)ccn1)C1CC1 [Example 2006, {4-[5-Cyclopropyl-4-(3,3-dimethyl-piperazin-1-yl)-pyrido[3,4-d]pyrimidin-2-yl]-pyridin-2-yl}-((R)-1-cyclopropyl-ethyl)-amine]
< 100 | C[C@@H](Nc1cc(-c2nc(N3CCNC(C)(C)C3)c3c(C4CC4)cncc3n2)ccn1)c1ccccc1 [Example 2007, {4-[5-Cyclopropyl-4-(3,3-dimethyl-piperazin-1-yl)-pyrido[3,4-d]pyrimidin-2-yl]-pyridin-2-yl}-((R)-1-phenyl-ethyl)-amine]
< 100 | CC(C)(C)c1cc2c(-c3nc(N4CCNCC4)c4c(C5CCC5)cncc4n3)ccnc2[nH]1 [Example 2010, 2-(2-tert-Butyl-1H-pyrrolo[2,3-b]pyridin-4-yl)-5-cyclobutyl-4-piperazin-1-yl-pyrido[3,4-d]pyrimidine]
< 100 | Fc1cc(F)nc(Nc2cc(-c3nc(N4CCNCC4)c4c(C5CCC5)cncc4n3)ccn2)c1 [Example 2011, [4-(5-Cyclobutyl-4-piperazin-1-yl-pyrido[3,4-d]pyrimidin-2-yl)-pyridin-2-yl]-(4,6-difluoro-pyridin-2-yl)-amine]
< 100 | c1cc(-c2nc(N3CCNCC3)c3c(C4CC4)cncc3n2)cc(Nc2nc3ccc(C4CC4)cn3n2)n1 [Example 2012, [4-(5-Cyclopropyl-4-piperazin-1-yl-pyrido[3,4-d]pyrimidin-2-yl)-pyridin-2-yl]-(6-cyclopropyl-[1,2,4]triazolo[1,5-a]pyridin-2-yl)-amine]
< 100 | Fc1cc(C2CCC2)cnc1Nc1cc(-c2nc(N3CCNCC3)c3c(C4CC4)cncc3n2)ccn1 [Example 2013, (5-Cyclobutyl-3-fluoro-pyridin-2-yl)-[4-(5-cyclopropyl-4-piperazin-1-yl-pyrido[3,4-d]pyrimidin-2-yl)-pyridin-2-yl]-amine]
< 100 | CCn1cc(Cl)c(Nc2cc(-c3nc(N4CCNCC4)c4c(C5CC5)cncc4n3)ccn2)n1 [Example 2015, (4-Chloro-1-ethyl-1H-pyrazol-3-yl)-[4-(5-cyclopropyl-4-piperazin-1-yl-pyrido[3,4-d]pyrimidin-2-yl)-pyridin-2-yl]-amine]
< 100 | CC1(C)CN(c2nc(-c3ccnc(Nc4ccn(CC(F)(F)F)n4)c3)nc3cncc(C4CC4)c23)CCN1 [Example 2017, {4-[5-Cyclopropyl-4-(3,3-dimethyl-piperazin-1-yl)-pyrido[3,4-d]pyrimidin-2-yl]-pyridin-2-yl}-[1-(2,2,2-trifluoro-ethyl)-1H-pyrazol-3-yl]-amine]
< 100 | CC(C)n1ccc(Nc2cc(-c3nc(N4CCNC(C)(C)C4)c4c(C5CC5)cncc4n3)ccn2)n1 [Example 2018, {4-[5-Cyclopropyl-4-(3,3-dimethyl-piperazin-1-yl)-pyrido[3,4-d]pyrimidin-2-yl]-pyridin-2-yl}-(1-isopropyl-1H-pyrazol-3-yl)-amine]
< 100 | CC1(C)CN(c2nc(-c3ccnc4[nH]c(C(C)(C)C)cc34)nc3cncc(C4CCC4)c23)CCN1 [Example 2028, 2-(2-tert-Butyl-1H-pyrrolo[2,3-b]pyridin-4-yl)-5-cyclobutyl-4-(3,3-dimethyl-piperazin-1-yl)-pyrido[3,4-d]pyrimidine]

Continued, molecule first:

Compound | IC50 [nM]
CN(C)C(=O)c1ccc(Nc2cc(-c3nc(N4CCNCC4)c4c(C5CC5)cncc4n3)ccn2)cc1 [Example 2003, 4-[4-(5-Cyclopropyl-4-piperazin-1-yl-pyrido[3,4-d]pyrimidin-2-yl)-pyridin-2-ylamino]-N,N-dimethyl-benzamide] | < 100
C[C@H]1CN(c2nc(-c3ccnc4[nH]c(C(C)(C)C)cc34)nc3cncc(C4CCC4)c23)CCN1 [Example 2008, 2-(2-tert-Butyl-1H-pyrrolo[2,3-b]pyridin-4-yl)-5-cyclobutyl-4-((S)-3-methyl-piperazin-1-yl)-pyrido[3,4-d]pyrimidine] | < 100
Fc1ccccc1C1(c2cc3c(-c4nc(N5CCNCC5)c5c(C6CC6)cncc5n4)ccnc3[nH]2)CC1 [Example 2009, 5-Cyclopropyl-2-{2-[1-(2-fluoro-phenyl)-cyclopropyl]-1H-pyrrolo[2,3-b]pyridin-4-yl}-4-piperazin-1-yl-pyrido[3,4-d]pyrimidine] | < 100
CN(c1nc(-c2ccnc(Nc3nc(F)c(F)cc3F)c2)nc2cncc(C3CC3)c12)C1CCNCC1 [Example 2014, {5-Cyclopropyl-2-[2-(3,5,6-trifluoro-pyridin-2-ylamino)-pyridin-4-yl]-pyrido[3,4-d]pyrimidin-4-yl}-methyl-piperidin-4-yl-amine] | < 100
FC(F)(F)Cn1ccc(Nc2cc(-c3nc(N4CCNCC4)c4c(C5CC5)cncc4n3)ccn2)n1 [Example 2016, [4-(5-Cyclopropyl-4-piperazin-1-yl-pyrido[3,4-d]pyrimidin-2-yl)-pyridin-2-yl]-[1-(2,2,2-trifluoro-ethyl)-1H-pyrazol-3-yl]-amine] | < 100
CN(c1nc(-c2ccnc(Nc3nc(F)cc(F)c3F)c2)nc2cncc(C3CC3)c12)C1CCNCC1 [Example 2019, {5-Cyclopropyl-2-[2-(3,4,6-trifluoro-pyridin-2-ylamino)-pyridin-4-yl]-pyrido[3,4-d]pyrimidin-4-yl}-methyl-piperidin-4-yl-amine] | < 100
Fc1cc(F)c(Nc2cc(-c3nc(NC4CCNC4)c4c(C5CC5)cncc4n3)ccn2)nc1F (stereo not shown) [Example 2020, {5-Cyclopropyl-2-[2-(3,5,6-trifluoro-pyridin-2-ylamino)-pyridin-4-yl]-pyrido[3,4-d]pyrimidin-4-yl}-pyrrolidin-3-yl-amine] | < 100
Fc1cc(F)c(F)c(Nc2cc(-c3nc(NC4CCNC4)c4c(C5CC5)cncc4n3)ccn2)n1 (stereo not shown) [Example 2021, {5-Cyclopropyl-2-[2-(3,4,6-trifluoro-pyridin-2-ylamino)-pyridin-4-yl]-pyrido[3,4-d]pyrimidin-4-yl}-pyrrolidin-3-yl-amine] | < 100
c1ccn2nc(Nc3cc(-c4nc(N5CCNCC5)c5c(C6CCC6)cncc5n4)ccn3)nc2c1 [Example 2022, [4-(5-Cyclobutyl-4-piperazin-1-yl-pyrido[3,4-d]pyrimidin-2-yl)-pyridin-2-yl]-[1,2,4]triazolo[1,5-a]pyridin-2-yl-amine] | < 100
c1cc(Nc2cc(-c3nc(N4CCNCC4)c4c(C5CC5)cncc4n3)ccn2)cc(N2CCOCC2)c1 [Example 2023, [4-(5-Cyclopropyl-4-piperazin-1-yl-pyrido[3,4-d]pyrimidin-2-yl)-pyridin-2-yl]-(3-morpholin-4-yl-phenyl)-amine] | < 100
FC(F)(F)c1cc2c(-c3nc(N4CCNCC4)c4c(C5CCC5)cncc4n3)ccnc2[nH]1 [Example 2024, 5-Cyclobutyl-4-piperazin-1-yl-2-(2-trifluoromethyl-1H-pyrrolo[2,3-b]pyridin-4-yl)-pyrido[3,4-d]pyrimidine] | < 100
CN(c1nc(-c2ccnc(Nc3c(F)cccc3F)c2)nc2cncc(C3CC3)c12)C1CCNC1 (stereo not shown) [Example 2025, {5-Cyclopropyl-2-[2-(2,6-difluoro-phenylamino)-pyridin-4-yl]-pyrido[3,4-d]pyrimidin-4-yl}-methyl-pyrrolidin-3-yl-amine] | < 100
Fc1cccc(F)c1Nc1cc(-c2nc(NC3CNC3)c3c(C4CC4)cncc3n2)ccn1 [Example 2026, Azetidin-3-yl-{5-cyclopropyl-2-[2-(2,6-difluoro-phenylamino)-pyridin-4-yl]-pyrido[3,4-d]pyrimidin-4-yl}-amine] | < 100
Fc1ccc(F)c2c1[nH]c1nccc(-c3nc(N4CCNCC4)c4c(C5CC5)cncc4n3)c12 [Example 2027, 4-(5-Cyclopropyl-4-piperazin-1-yl-pyrido[3,4-d]pyrimidin-2-yl)-5,8-difluoro-9H-pyrido[2,3-b]indole] | < 100
CN(c1nc(-c2ccnc(Nc3c(F)cccc3F)c2)nc2cncc(C3CC3)c12)C1CNC1 [Example 2029, Azetidin-3-yl-{5-cyclopropyl-2-[2-(2,6-difluoro-phenylamino)-pyridin-4-yl]-pyrido[3,4-d]pyrimidin-4-yl}-methyl-amine] | < 100
